A word on the melting point: it is the temperature, or range, at which the solid turns liquid. In turn, `CC(/C(=C/[N+](=O)[O-])Nc1ccccc1)c1ccc(Cl)nc1` (stereo not shown) [Compound 45, N-{(Z)-1-[1-(6-chloro-3-pyridinyl)ethyl]-2-nitroethenyl}aniline] displayed a melting point of 93 to 95 °C.

The record behind these values is patent publication US7557132B2, “Compounds useful as pesticides” (Dow AgroSciences LLC, priority 2002, dated 2009).
